Laboratory results taken from ChEMBL document CHEMBL5390276, “Discovery of Unusual Sesterterpenoids from Colquhounia coccinea var. mollis and Their Metabolic Implications” (2023).

Tests used:
Format in all cases: functional
[1] = Immunosuppressive activity in anti-CD3/CD28 stimulated C57BL/6 mouse T cell line assessed as inhibition of IFN-gamma level at 0.1 uM incubated for 48 hrs by ELISA analysis relative to control; conditions: C57BL/6, T-cell
Jurkat [2] = experiment: Immunosuppressive activity in PMA and PHA activated human Jurkat cells assessed as inhibition of IL-2 level at 0.1 uM incubated for 48 hrs by ELISA analysis relative to control
RAW264.7 [3] = experiment: Immunosuppressive activity in LPS-treated mouse RAW264.7 cells assessed as inhibition of TNF-alpha level at 40 uM incubated for 24 hrs by ELISA analysis relative to control
RAW264.7 [4] = experiment: Immunosuppressive activity in LPS-treated mouse RAW264.7 cells assessed as inhibition of MCP-1 level at 40 uM incubated for 24 hrs by ELISA analysis relative to control
RAW264.7 [5] = experiment: Immunosuppressive activity in LPS-treated mouse RAW264.7 cells assessed as inhibition of IL-6 level at 40 uM incubated for 24 hrs by ELISA analysis relative to control
Jurkat [6] = experiment: Immunosuppressive activity in PMA and PHA activated human Jurkat cells assessed as inhibition of IL-2 level at 40 uM incubated for 48 hrs by ELISA analysis relative to control
RAW264.7 [7] = experiment: Immunosuppressive activity in LPS-treated mouse RAW264.7 cells assessed as inhibition of IL-6 level at 20 uM incubated for 24 hrs by ELISA analysis relative to control
[8] = Immunosuppressive activity in anti-CD3/CD28 stimulated C57BL/6 mouse T cell line assessed as inhibition of IFN-gamma level at 20 uM incubated for 48 hrs by ELISA analysis relative to control; conditions: C57BL/6, T-cell
RAW264.7 [9] = experiment: Immunosuppressive activity in LPS-treated mouse RAW264.7 cells assessed as inhibition of TNF-alpha level at 1 uM incubated for 24 hrs by ELISA analysis relative to control
RAW264.7 [10] = experiment: Immunosuppressive activity in LPS-treated mouse RAW264.7 cells assessed as inhibition of MCP-1 level at 1 uM incubated for 24 hrs by ELISA analysis relative to control
Jurkat [11] = experiment: Immunosuppressive activity in PMA and PHA activated human Jurkat cells assessed as inhibition of IL-2 level at 20 uM incubated for 48 hrs by ELISA analysis relative to control

Row | Structure (SMILES) | inhibition at 40 µM (RAW264.7 [3]) [%] | inhibition at 40 µM (RAW264.7 [4]) [%] | inhibition at 40 µM (RAW264.7 [5]) [%] | inhibition at 40 µM (Jurkat [6]) [%] | inhibition at 20 µM (RAW264.7 [7]) [%] | inhibition at 20 µM [8] [%] | further results
1 | C[C@@H]1C[C@H]2[C@@H]3CCC4=CC(=O)C=C[C@]4(C)[C@@]3(F)[C@@H](O)C[C@]2(C)[C@@]1(O)C(=O)CO [DEXAMETHASONE] |  |  |  |  |  |  | inhibition at 0.1 µM [1]: 98.3%; inhibition at 0.1 µM (Jurkat [2]): 98.9%
2 | CC(=O)O[C@H]1C[C@H](C)[C@H]2C(=O)C3=C([C@H](C)[C@H]21)[C@@]1(CC[C@H](C)O1)O[C@]3(C)CC[C@@H]1OC(=O)C=C1C | 52.5 | 32.2 | 10.4 | < 10 |  |  | 
3 | CC(=O)O[C@H]1C[C@H](C)[C@H]2C(=O)C3=C(/C(=C/C(C)C)O[C@]3(C)CCc3occc3C)[C@H](C)[C@H]21 | 24.3 | 31.9 | < 10 | 21.1 |  |  | 
4 | Cc1ccoc1CC[C@]1(C)O[C@@]2(CCC(C)Cl)O[C@H]3C[C@H](C)[C@H]4C(=O)[C@@H]1[C@]2(O)[C@H](C)[C@H]43 (some centres not stated) |  |  |  |  | 45.6 | 61.2 | 
5 | C/C=C/C[C@@H](C)[C@@H](O)[C@H]1C(=O)N[C@@H](CC)C(=O)N(C)CC(=O)N(C)[C@@H](CC(C)C)C(=O)N[C@@H](C(C)C)C(=O)N(C)[C@@H](CC(C)C)C(=O)N[C@@H](C)C(=O)N[C@H](C)C(=O)N(C)[C@@H](CC(C)C)C(=O)N(C)[C@@H](CC(C)C)C(=O)N(C)[C@@H](C(C)C)C(=O)N1C [CYCLOSPORINE] |  |  |  |  |  |  | inhibition at 1 µM (RAW264.7 [9]): 70.8%; inhibition at 1 µM (RAW264.7 [10]): 66%
6 | Cc1ccoc1CC[C@]1(C)O[C@@]2(CC(C)CCl)O[C@H]3C[C@H](C)[C@H]4C(=O)[C@@H]1[C@]2(O)[C@H](C)[C@H]43 (some centres not stated) |  |  |  |  | 38.6 | 67.4 | inhibition at 20 µM (Jurkat [11]): 33.1%
